Experimental data published in patent US20050175550A1, “Compositions for oral use” (priority 2000, published 2005).
Values after ≈ are worked out from the molar mass of the structure shown.

Tests used:
Assay in all cases: MIC by agar plate dilution method on standard strains (Example 3)
Assay type in all cases: cell-based
Conditions in all cases: read-out: MIC
[1] = test system: Moraxella (Branhamella) catarrhalis ATCC25240
Experimental: (§1) Drug solutions at a concentration 10 times as high as the maximum applicable concentration were prepared as original solutions of test drugs given in Table 2 (as to solvents used for this purpose, reference should be made also to Table 2). Serial two-fold dilution series of the original solutions were prepared at desired stages, and 1 ml each of the diluted drug solutions was added to 9 ml of media given in Table 3 to prepare drug plates. […] • 1) Bacterial solutions stocked at −80° C. were inoculated on agar media (as to media used, reference should be made to Table 3), and then incubated at 37° C. overnight. When desired, subculturing was conducted once more on the same agar media (by overnight incubation at 37° C.). • 2) Colonies growing on the agar media were sampled by a platinum loop, suspended in liquid media (reference should be made to Table 3) and statically incubated at 37° C. for 18 hours (preculturing). • 3) Preculturing was continued up to McFarland 0.5 (McFarland 0.5=about 10^8 CFU/ml), and then the culture broths were diluted with Muellar Hinton Broth to make 10^6 CFU/ml. 5 μl each of the diluted solutions were inoculated on the above-mentioned drug plates by an inoculator Microplanter. […] Thus, bacterial solutions at about 10^8 CFU/ml can be easily prepared by use of McFarland 0.5. Bacterial solutions at such a turbidity are commercially available, but can be easily prepared.

[2] = test system: Moraxella (Branhamella) catarrhalis ATCC43617
Experimental: as §1

[3] = test system: Pseudomonas aeruginosa ATCC27853
Experimental: as §1

[4] = test system: Serratia marcescens ATCC13880
Experimental: as §1

[5] = test system: Staphylococcus aureus ATCC29247
Experimental: as §1

[6] = test system: Staphylococcus aureus ATCC6538P
Experimental: as §1

[7] = test system: Streptococcus agalactiae ATCC13813
Experimental: as §1

[8] = test system: Streptococcus pneumoniae ATCC49619
Experimental: as §1

[9] = test system: Streptococcus pneumoniae ATCC6301
Experimental: as §1

[10] = test system: Streptococcus pneumoniae ATCC6302
Experimental: as §1

[11] = test system: Streptococcus pneumoniae ATCC6303
Experimental: as §1

[12] = test system: Streptococcus pneumoniae ATCC6306
Experimental: as §1

[13] = test system: Streptococcus pyogenes ATCC12344
Experimental: as §1

[14] = test system: Streptococcus pyogenes ATCC12353
Experimental: as §1

[15] = test system: Streptococcus pyogenes ATCC12385
Experimental: as §1

CN(C)[C@@H]1C(O)=C(C(N)=O)C(=O)[C@@]2(O)C(O)=C3C(=O)c4c(O)cccc4[C@@](C)(O)[C@H]3C[C@@H]12 [TC, Tetracycline]
MIC [1]: 0.2 µg/mL (≈ 0.45 µM)
MIC [2]: 0.2 µg/mL (≈ 0.45 µM)
MIC [3]: 12.5 µg/mL (≈ 28.1 µM)
MIC [4]: 100 µg/mL (≈ 225 µM)
MIC [5]: 0.78 µg/mL (≈ 1.76 µM)
MIC [6]: 0.2 µg/mL (≈ 0.45 µM)
MIC [7]: 0.2 µg/mL (≈ 0.45 µM)
MIC [8]: 0.1 µg/mL (≈ 0.225 µM)
MIC [9]: 0.1 µg/mL (≈ 0.225 µM)
MIC [10]: 0.2 µg/mL (≈ 0.45 µM)
MIC [11]: 0.1 µg/mL (≈ 0.225 µM)
MIC [12]: 0.2 µg/mL (≈ 0.45 µM)
MIC [13]: 0.2 µg/mL (≈ 0.45 µM)
MIC [14]: 0.2 µg/mL (≈ 0.45 µM)
MIC [15]: 0.2 µg/mL (≈ 0.45 µM)
